“Also recorded” adds a separate entry of the source. Where two headings read alike, the source gives them in different places.
What was measured:
[1] = system: mesenteric vessels isolated from a TRPM8 knockout mouse; test: Wire myography, KPSS-contracted mesenteric vessels from TRPM8 knockout mice; conditions: TRPM8 KO tissue; 50μM
hTRPA1 = hTRPA1 (Homo sapiens, UniProt O75762); test: Single cell confocal Ca2+ imaging (fluo-4) in transfected HEK293 cells; format: cell-based; design: host or cells: HEK293 (ATCC CRL-1573.3), transient; conditions: 100μM
Sequence of hTRPA1 (O75762 whole entry, the tested form may be a part): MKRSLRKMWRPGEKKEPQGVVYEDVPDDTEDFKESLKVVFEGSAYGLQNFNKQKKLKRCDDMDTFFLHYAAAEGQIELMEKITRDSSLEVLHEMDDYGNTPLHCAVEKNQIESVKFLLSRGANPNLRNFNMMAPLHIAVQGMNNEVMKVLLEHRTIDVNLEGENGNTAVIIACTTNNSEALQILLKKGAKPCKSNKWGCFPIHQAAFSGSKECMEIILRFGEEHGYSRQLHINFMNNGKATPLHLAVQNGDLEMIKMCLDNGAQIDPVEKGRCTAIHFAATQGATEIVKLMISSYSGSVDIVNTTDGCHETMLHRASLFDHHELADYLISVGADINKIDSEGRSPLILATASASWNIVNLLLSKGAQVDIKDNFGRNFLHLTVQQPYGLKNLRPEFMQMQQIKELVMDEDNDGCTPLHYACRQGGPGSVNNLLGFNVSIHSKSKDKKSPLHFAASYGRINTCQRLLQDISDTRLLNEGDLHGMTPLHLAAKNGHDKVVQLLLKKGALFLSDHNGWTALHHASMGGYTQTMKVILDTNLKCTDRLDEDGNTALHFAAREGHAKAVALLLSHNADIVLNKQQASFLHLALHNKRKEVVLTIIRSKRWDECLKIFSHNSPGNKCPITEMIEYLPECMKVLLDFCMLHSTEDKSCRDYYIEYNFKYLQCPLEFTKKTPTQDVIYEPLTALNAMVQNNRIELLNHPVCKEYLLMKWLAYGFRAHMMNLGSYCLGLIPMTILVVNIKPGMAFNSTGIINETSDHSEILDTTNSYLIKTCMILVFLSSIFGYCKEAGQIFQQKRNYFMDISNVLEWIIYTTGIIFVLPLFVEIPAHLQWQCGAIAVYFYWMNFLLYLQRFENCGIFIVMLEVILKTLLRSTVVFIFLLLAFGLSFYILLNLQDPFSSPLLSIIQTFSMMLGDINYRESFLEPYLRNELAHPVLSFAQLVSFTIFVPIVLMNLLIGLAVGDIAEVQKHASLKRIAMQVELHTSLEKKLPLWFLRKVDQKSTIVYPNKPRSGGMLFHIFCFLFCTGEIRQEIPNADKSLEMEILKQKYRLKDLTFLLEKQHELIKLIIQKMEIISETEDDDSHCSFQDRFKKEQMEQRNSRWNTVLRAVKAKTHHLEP
Text: (§1) Human TRPM8 cDNA was a VersaClone from R&D Systems (RDC0188). Plasmids encoding human TRPA1 and human TRPV1 cDNA were purchased from DNASU plasmid repository (HsCD00080227 and HsCD00081472, respectively). The TRP channel coding sequences were subcloned into pCS2+ to introduce a COOH-term myc tag using the InFusion HD method (Clontech), HindIII/XhoI restriction enzymes (NEB) and the following primers: TRPM8 F–TGGGGACGTCGGAGC-aagctt-[…]; TRPM8 R–AAATCGATGGGATGC-ctcgag-[…]; TRPA1 F-GGACGTCGGAGC-aagctt- atgaagcgcagcctgagg; TRPA1 R-TCGATGGGATGC-ctcgag-[…]; TRPV1 F–GGACGTCGGAGC-aagctt-[…]; TRPV1 R-TCGATGGGATGC-ctcgag-cttctccccggaagcgg (where upper case specifies vector-specific sequences, italics indicate restriction sites, and lower case indicates TRP channel specific sequences). Primers are listed in a 5’ to 3’ orientation.
(§2) HEK293 cells (ATCC CRL-1573.3) were cultured in DMEM supplemented with 10% fetal bovine serum (FBS), penicillin (100 units/ml), streptomycin (100 μg/ml), and L-glutamine (290 μg/ml). Cells were transiently transfected (Lipofectamine LTX, Thermo Fisher) at a density of 2x10^6 cells per T-25 cell-culture flask with TRP channel cDNA. For Ca^2+ imaging assays, HEK293 cells were seeded onto 8-chambered coverglass slides (Thermo Fisher, 115411PK), at a density of 1x10^4 cells one day prior to imaging. Cells were washed twice with HBSS, and incubated with fluo-4-AM (4μM), pluronic F127 (0.4%) and probenecid (2.5mM) for 25 minutes at room temperature. Cells were then washed twice with HBSS, and left at room temperature (30 minutes) for de-esterification. Dishes were mounted on an Olympus IX81 microscope and fluorescence changes (λex = 488nM, λem = 513±15nm bandpass filter) monitored using a Yogokawa spinning disk confocal (CSU-X-M1N) and an Andor iXon Ultra 888 EMCCD camera.

hTRPM8 [2] = biological target: T1, hTRPM8 (Homo sapiens, UniProt Q7Z2W7); test: as above; format: cell-based; design: host or cells: HEK293 (ATCC CRL-1573.3), transient; conditions: for EC50: confocal imaging, Fig 4E, read-out: EC50, Ca2+ mobilization in TRPM8 expressing cells; for cytoplasmic Ca2+ signal in TRPM8 expressing cells: menthol 300μM, ±PZQ 100μM, (R)-PZQ or (S)-PZQ 50μM
T1 sequence (Q7Z2W7 whole entry): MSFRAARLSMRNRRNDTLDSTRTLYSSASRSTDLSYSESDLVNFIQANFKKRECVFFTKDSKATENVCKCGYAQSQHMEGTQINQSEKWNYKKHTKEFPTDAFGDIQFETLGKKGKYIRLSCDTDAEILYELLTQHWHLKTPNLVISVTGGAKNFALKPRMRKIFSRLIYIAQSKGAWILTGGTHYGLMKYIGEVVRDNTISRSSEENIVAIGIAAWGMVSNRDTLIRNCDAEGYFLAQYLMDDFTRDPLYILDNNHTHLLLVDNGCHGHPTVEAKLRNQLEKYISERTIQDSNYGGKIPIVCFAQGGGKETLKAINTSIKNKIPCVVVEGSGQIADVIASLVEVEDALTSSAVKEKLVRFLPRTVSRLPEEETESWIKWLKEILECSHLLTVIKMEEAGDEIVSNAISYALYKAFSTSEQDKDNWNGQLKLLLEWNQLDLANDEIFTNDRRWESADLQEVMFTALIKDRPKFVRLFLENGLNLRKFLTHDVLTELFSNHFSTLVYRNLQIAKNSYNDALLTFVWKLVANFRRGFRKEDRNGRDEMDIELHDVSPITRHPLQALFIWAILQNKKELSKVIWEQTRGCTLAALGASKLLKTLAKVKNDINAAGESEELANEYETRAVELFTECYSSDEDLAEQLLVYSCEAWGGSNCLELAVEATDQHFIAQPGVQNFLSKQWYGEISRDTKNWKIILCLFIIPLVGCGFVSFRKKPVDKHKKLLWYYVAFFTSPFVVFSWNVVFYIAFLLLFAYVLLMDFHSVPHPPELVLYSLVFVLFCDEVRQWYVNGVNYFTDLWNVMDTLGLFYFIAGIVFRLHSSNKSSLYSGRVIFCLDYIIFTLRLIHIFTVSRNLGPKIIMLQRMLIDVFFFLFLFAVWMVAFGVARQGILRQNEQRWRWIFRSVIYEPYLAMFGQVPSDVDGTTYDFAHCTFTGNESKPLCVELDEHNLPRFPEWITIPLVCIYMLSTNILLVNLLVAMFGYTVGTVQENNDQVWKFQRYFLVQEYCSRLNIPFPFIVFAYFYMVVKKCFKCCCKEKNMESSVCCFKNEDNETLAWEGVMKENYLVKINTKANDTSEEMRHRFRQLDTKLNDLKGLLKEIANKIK
Text: as §1, §2

[3] = system: untransfected HEK293 cells; test: Confocal Ca2+ imaging in untransfected HEK293 cells (control); format: cell-based, human; conditions: menthol 300μM, ±PZQ 100μM, ACh 100μM, capsaicin 1μM, AITC 100μM
Procedure: as §2

TRPV1 [4] = biological target: T2, TRPV1 (Homo sapiens, UniProt Q8NER1); test: TRP channel panel primary screen (FLIPR Calcium 5, stable HEK line); format: cell-based; conditions: 0.3-300μM
T2 sequence (Q8NER1 whole entry): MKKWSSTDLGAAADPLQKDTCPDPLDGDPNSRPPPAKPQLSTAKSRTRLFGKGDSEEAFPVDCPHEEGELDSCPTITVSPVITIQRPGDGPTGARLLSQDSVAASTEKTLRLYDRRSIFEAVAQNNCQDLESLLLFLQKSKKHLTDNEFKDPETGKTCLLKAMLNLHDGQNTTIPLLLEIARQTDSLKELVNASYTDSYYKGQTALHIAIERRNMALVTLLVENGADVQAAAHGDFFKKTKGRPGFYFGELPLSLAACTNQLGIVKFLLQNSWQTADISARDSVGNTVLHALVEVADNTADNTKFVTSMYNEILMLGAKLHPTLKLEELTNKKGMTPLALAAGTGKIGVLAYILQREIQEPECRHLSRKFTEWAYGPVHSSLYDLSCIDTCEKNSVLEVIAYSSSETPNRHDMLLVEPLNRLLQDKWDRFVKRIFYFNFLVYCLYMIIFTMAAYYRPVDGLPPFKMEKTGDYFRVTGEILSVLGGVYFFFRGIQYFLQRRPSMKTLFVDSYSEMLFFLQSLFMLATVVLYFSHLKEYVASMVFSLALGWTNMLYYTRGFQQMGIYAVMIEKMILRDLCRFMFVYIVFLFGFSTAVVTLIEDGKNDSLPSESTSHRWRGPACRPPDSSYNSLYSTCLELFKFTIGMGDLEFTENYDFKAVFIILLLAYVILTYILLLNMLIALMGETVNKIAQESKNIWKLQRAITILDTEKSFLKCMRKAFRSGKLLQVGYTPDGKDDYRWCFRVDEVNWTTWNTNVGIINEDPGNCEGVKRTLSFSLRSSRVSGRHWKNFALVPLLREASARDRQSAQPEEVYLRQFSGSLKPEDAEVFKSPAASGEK
Procedure: ±PZQ, (R)-PZQ and (S)-PZQ were screened against a panel of 17 human TRP channels (SB Drug Discovery, Glasgow). For all hTRPs, except for TRPM5, individual channel constructs were stably expressed in HEK cell lines. TRMP5 was expressed in a stable CHO cell line. In preparation for the assays, cells were trypsinized, counted and seeded (50,000 cells/well) in black, clear-bottomed 96 well plates and incubated overnight. The following day, cells were loaded with a fluorescent indicator (FLIPR Calcium 5 Assay kit for TRPA1, TRPV1, TRPV2, TRPV3, TRPV4, TRPV5, TRPC1, TRPM2, TRPM3 and TRPM8, or a membrane potential dye (FLIPR Membrane Potential Red Assay Kit for TRPC3, TRPC4, TRPC5, TRPC6, TRPC7, TRPM4 and TRPM5) prepared according to the manufacturer’s instructions in HEPES buffered Hank’s balanced salt solution (HBSS). Dye solution (10μl) was added to appropriate wells and incubated at 37°C for 1 hour. All assays were performed at room temperature. Compounds were tested at 0.3, 1, 3, 10, 30, 100μM and 300μM in triplicate in both agonist and antagonist mode to determine EC50 and IC50 values, which were compared with reference compounds. Compounds were screened at a final DMSO concentration of 0.5%. Plates were screened using a Flexstation (Molecular Devices, FX01138), monitoring fluorescence values every ~1.52 seconds. For ‘agonist mode’ testing, 10μl of the appropriate test compound, or standard agonist, was added after 20 seconds and fluorescence monitored for 2 minutes at λex = 485nm, λem = 525nm for Ca^2+ imaging and λex = 530nm, λem = 565nm for membrane potential measurements. For ‘antagonist mode’ testing, test compounds and standard inhibitors were added to appropriate wells and incubated for 10 minutes at room temperature prior to addition of standard agonist compound.

TRPV1 [5] = biological target: T2, TRPV1; test: Single cell confocal Ca2+ imaging (fluo-4) in transfected HEK293 cells; format: cell-based; design: host or cells: HEK293 (ATCC CRL-1573.3), transient; conditions: capsaicin 1μM, ±PZQ 100μM
Text: as §1, §2

TRPV1 [6] = biological target: T2, TRPV1; design: method as in PMID 29054683; conditions: 100μM; cited from earlier work
hTRPM8 [7] = biological target: T1, hTRPM8; design: host or cells: HEK293 (ATCC CRL-1573.3), transient; method as in PMID 29054683; conditions: by microfluorimetry; partial agonist; cited from earlier work

| Ca2+ response in hTRPA1 expressing cells (hTRPA1) | EC50 (hTRPM8 [2]) | cytoplasmic Ca2+ signal in TRPM8 expressing cells (hTRPM8 [2]) | activity against TRPV1 in primary screen (TRPV1 [4]) | Ca2+ signal in TRPV1 expressing cells (TRPV1 [5]) | SMILES | extent of relaxation [1] | Ca2+ response in untransfected HEK293 cells [3] | activation of TRPV1 (TRPV1 [6]) | EC50 (hTRPM8 [7]) |
| --- | --- | --- | --- | --- | --- | --- | --- | --- | --- |
| activation of hTRPA1 | 19.2 ± 5.3 µM | evoked cytoplasmic Ca^2+ signals | – | – | O=C(C1CCCCC1)N1CC(=O)N2CCc3ccccc3[C@H]2C1 [(S)-PZQ] | ~ 30 % of peak KPSS-evoked tone | – | – | – |
| elicited Ca^2+ responses | 19 ± 5 µM | evoked cytoplasmic Ca^2+ signals | no activity | No responses | O=C(C1CCCCC1)N1CC(=O)N2CCc3ccccc3C2C1 (racemic) [±PZQ, praziquantel] | – | neither ±PZQ or menthol elevated cytoplasmic Ca^2+ levels; also recorded: neither the addition of the TRPV1 agonist capsaicin (1μM) nor addition of ±PZQ evoked a Ca^2+ response; also recorded: without effect | low potency activation | ~25 µM |
